Columns and labels:
[1] = molecular target: recombinant human RSK2 (Homo sapiens, UniProt P51812); assay: IMAP fluorescence polarization kinase inhibition assay, RSK2; type: biochemical; conditions: read-out: IC50 RSK2; single assay; head-to-head testing, single batch of enzyme
[2] = molecular target: T1, recombinant human Chk1 (Homo sapiens, UniProt O14757); assay: IMAP fluorescence polarization kinase inhibition assay, Chk1; type: biochemical; conditions: read-out: IC50 Chk1; single assay; head-to-head testing, single batch of enzyme
T1 sequence (O14757 1-476): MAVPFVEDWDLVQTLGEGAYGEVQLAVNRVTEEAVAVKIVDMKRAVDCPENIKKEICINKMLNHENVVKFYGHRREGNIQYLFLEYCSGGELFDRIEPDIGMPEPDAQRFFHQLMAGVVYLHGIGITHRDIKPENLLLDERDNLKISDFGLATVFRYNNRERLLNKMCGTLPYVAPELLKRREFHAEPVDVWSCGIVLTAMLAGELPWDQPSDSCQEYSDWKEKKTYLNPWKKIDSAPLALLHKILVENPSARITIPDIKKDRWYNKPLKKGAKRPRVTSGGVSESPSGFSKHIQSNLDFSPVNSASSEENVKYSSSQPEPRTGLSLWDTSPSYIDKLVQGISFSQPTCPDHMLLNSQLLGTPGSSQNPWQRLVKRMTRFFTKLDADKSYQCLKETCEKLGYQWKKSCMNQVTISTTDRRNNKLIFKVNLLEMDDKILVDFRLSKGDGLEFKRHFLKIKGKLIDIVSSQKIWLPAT

Sequence of recombinant human RSK2 (P51812 whole entry): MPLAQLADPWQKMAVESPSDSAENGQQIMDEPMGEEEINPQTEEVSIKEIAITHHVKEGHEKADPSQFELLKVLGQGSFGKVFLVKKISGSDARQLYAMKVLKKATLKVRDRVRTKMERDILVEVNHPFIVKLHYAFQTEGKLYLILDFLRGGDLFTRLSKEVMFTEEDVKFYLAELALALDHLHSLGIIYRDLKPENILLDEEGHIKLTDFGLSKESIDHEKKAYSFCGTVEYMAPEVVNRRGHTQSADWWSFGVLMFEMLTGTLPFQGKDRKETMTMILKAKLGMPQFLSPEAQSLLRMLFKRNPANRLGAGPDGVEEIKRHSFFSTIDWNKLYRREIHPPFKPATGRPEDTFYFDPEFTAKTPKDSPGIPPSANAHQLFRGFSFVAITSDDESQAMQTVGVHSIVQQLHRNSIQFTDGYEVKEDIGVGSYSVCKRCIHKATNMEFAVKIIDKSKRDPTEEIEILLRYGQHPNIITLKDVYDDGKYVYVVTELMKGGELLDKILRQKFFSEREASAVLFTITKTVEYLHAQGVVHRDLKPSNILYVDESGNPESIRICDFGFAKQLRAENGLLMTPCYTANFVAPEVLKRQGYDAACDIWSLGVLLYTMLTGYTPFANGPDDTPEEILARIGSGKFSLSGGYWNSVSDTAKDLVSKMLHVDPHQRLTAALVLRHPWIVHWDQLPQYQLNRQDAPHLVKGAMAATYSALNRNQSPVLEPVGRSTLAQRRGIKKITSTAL

CC(=NNC(=N)N)c1ccc(NC(=O)c2cc3cccc([N+](=O)[O-])c3[nH]2)cc1 [PV1019, 7-nitro-1H-indole-2-carboxylic acid {4-[1-(guanidinohydrazone)-ethyl]-phenyl}-amide]
IC50 [1]: 39 µM | IC50 [2]: 8.1 µM
